The target in one assay is cyclophilin A (CYPA) (Homo sapiens, UniProt P62937). The experiment in a line: CYPA-compound binary complex formation by SPR. Particulars: read-out: CYPA Binding Affinity. As to the method: In order to determine the affinity of compounds of the invention for cyclophilin A (CYPA), we employed surface plasmon resonance binding analysis using the following reagents, instruments and protocol as supplied by the instrument manufacturer.
Reagents and Instrument • 1. Instrument: Biacore S200 (GE Healthcare Life Sciences) • 2. Running buffer: 1×HBS-P+ (1×HBS supplemented with 0.05% Tween20), pH7.4, and 2% DMSO. • 3. Ligand: CypA-Avi • 4. Analyte: Serial dilution of WDB compounds from 50 μM to 0 μM, 2-fold dilution, 10 points (10 mM stock concentration). • 5. Sensor kit: Biotin CAPture Kit (BR28-9202-34, GE Healthcare Life Sciences) • 6. Regeneration buffer: 1 volume of 1 M NaOH and 3 volumes of 8 M guanidine hydrochloride (supplied with CAPture Kit, BR28-9202-34, GE Healthcare Life Sciences)
Experimental Procedure • 1. Capture of CAPreagent: 2 μl/min for 60 seconds. • 2. Immobilization of ligand CypA: Use Fc1 as the reference cell; immobilize CypA at 4 μg/ml using 5 μl/min flowrate on Fc2 (60s), Fc3 (80s) and Fc4 (80s), respectively. • 3. Binding of analytes: Inject WDB compound dilutions sequentially at 50 μl/min for association of 60 seconds. And then let it dissociates in buffer at 50 μl/min for 60 seconds. • 4. Regeneration: 2 injections of regeneration buffer at 30 μl/min for 60 seconds to regenerate the chip surface. • 5. Solvent correction: Run solvent correction at beginning and the end of the run. If run more than 6 compounds, add additional solvent correction every 6 compounds. • 6. Data fitting with built-in Biacore Evaluation Software: Steady-state fitting.

Another assay concerns pERK in H358 cells. The experiment in a line: pERK inhibition in H358 cells. The assay is classed as cell-based, human. Particulars: 4 hours treatment, read-out: Cellular pERK inhibition. As to the method:
H358 cells (5500 cells) derived from a human lung cancer were plated in a 96 well plate in media (100 uL, RPMI with 10% FBS). After 24 hours, cells were treated for 4 hours with compound or DMSO. Cells were washed twice with room temperature TBS (200 uL) and fixed for 20 minutes with 4% paraformaldehyde diluted with TBS (150 uL). Cells were washed four times for five minutes with 0.1% TritonX/TBS (150 uL) to permeabilize the membrane. Cells were incubated with TBS blocking buffer (100 uL) at room temperature for 60 minutes. Primary antibody (Phospho-p44/42 MAPK (Erk1/2) (Thr202/Tyr204) (D13.14.4E) XP® Rabbit mAb #4370, Cell Signaling Technology; 1:200) was added, and the cells were incubated overnight at 4 C. The cells were washed four times for five minutes with 0.1% Tween 20/TBS (150 uL). Secondary antibody (IRDye® 800CW Goat-Anti-Rabbit IgG, Li-Cor Biosciences; 1:1000) and DRAQ5™ (Invitrogen; 1:2000) was added, and the cells were incubated for 1 hour at room temperature. The cells were washed four times for five minutes with 0.1% Tween 20/TBS (150 uL) and scanned using the LICOR (700 and 800 nm).

For assay [1], the target named is T1, BRAF-GTP-KRAS-G12C complex (Homo sapiens, UniProt P01116+P62937, G12C).
T1 construct: 50 nM of His6-KRas G12C-GTP (1-169); 500 nM of tagless CypA (1-165)
The experiment in a line: KRAS-BRAF complex disruption through competition with CYPA-compound by TR-FRET. Conditions: biochemical BRAF-KRAS G12C-GTP disruption assay EC50, with CYPA. As to the method:
In this example, TR-FRET was used to measure the compound-facilitated disruption of a KRAS-BRAF complex. A mixture of tagless Cyclophilin A, His6-KRAS G12C-GMP-PNP, and GST-BRAF RAS binding domain was added to a 384-well assay plate containing compounds of the invention and incubated for 3 hours. A mixture of Anti-His Eu-W1024 and anti-GST allophycocyanin was then added and the reaction was incubated for an additional 1.5 hours. TR-FRET signal was read on an EnVision microplate reader (Perkin Elmer, Ex 320 nm, Em 665/615 nm). Compounds that facilitate disruption of a KRAS_BRAF complex were identified as those eliciting a decrease in the TR-FRET ratio relative to DMSO control wells. To determine the presenter-dependence of the compound-mediated KRAS-BRAF complex disruption, Cyclophilin A was left out of the initial incubation (see Table 5). To determine G12C specificity of the compound-mediated KRAS-BRAF complex disruption, wild-type KRAS was used instead of G12C KRAS (see Table 5).
Reagents and Instrument • Tagless CYPA; 519 μM in PBS buffer, pH 7.4 • GST BRAF; 110 μM in PBS buffer, pH 7.4 • His6-KRASG12C-GMP-PNP; 50 μM in PBS buffer, pH 7.4 • His6-KRASWT-GMP-PNP; 40 μM in PBS buffer, pH 7.4 • Anti-His Eu-W1024 (LANCE® Eu-W1024; Perkin Elmer) • Anti-GST allophycocyanin (Anti-GST IgG conjugated to SureLight®-Allophycocyanin; Perkin Elmer; Product Number AD0059G) • Test compounds, 10 mM in 100% DMSO • EnVision (Perkin Elmer) • Combi MultiDrop liquid dispenser with 8-channel small volume cassette • 384-well ProxiPlate (black)
Experimental Protocol • 1. Use Mosquito to dispense 100 nL/well of compounds (varying concentration in […]) into 384-well black ProxiPlate to make assay-ready-plate (ARP). • 2. Make assay buffer containing 25 mM Hepes pH 7.3, 100 mM NaCl, 5 mM MgCl2, 0.05% BSA, and 0.002% Tween-20. • 3. Make PRE-MIX A: delivers final concentrations of 50 nM of His6-KRas G12C-GTP (1-169) and 500 nM of tagless CypA (1-165) in assay buffer. • a. For presenter dependence experiments, omit addition of tagless CypA • b. For G12C/wt specificity experiments, substitute His6-KRas WT-GTP (1-169) for His6-KRas G12C-GTP (1-169) • 4. Use MultiDrop Combi to dispense PRE-MIX A into ARP, 7 μl/well. Incubate 3 hr at room temperature. • 5. Make PRE-MIX B: delivers final concentrations of 10 nM of anti-His Eu-W1024 and 50 nM of anti-GST APC. • 6. Use MultiDrop Combi to dispense PRE-MIX B into ARP, 3 μl/well. Shake briefly on Combi and incubate 1.5 hr at room temperature. • 7. Read on EnVision (Ex: 320 nm; Em1: 615 nm; Em2: 665 nm). • 8. Data is processed using Dotmatics. Curves are fit using a 4-parameter non-linear fit to determine the EC50 value for formation of the ternary complex.

Molecules are shown by their SMILES.

With `CC1COC(=O)C2CCCN(N2)C(=O)C(NC(=O)C(C(C)C)N(C)C(=O)C2CN(C(=O)CCl)C2)Cc2cc(O)cc(c2)-c2ccc3c(-c4ccccc4C#N)cn(c3c2)C1` [Compound 5, 1-(2-chloroacetyl)-N-((2S)-1-(((6^3S,4S,10S)-1^3-(2-cyanophenyl)-2^5-hydroxy-10-methyl-5,7-dioxo-6^1,6^2,6^3,6^4,6^5,6^6-hexahydro-1^1H-8-oxa-1(6,1)-indola-6(1,3)-pyridazina-2(1,3)-benzenacycloundecaphane-4-yl)amino)-3-methyl-1-oxobutan-2-yl)-N-methylazetidine-3-carboxamide], the Kd on cyclophilin A (CYPA) is not above 5 µM. Further, in the assay on pERK in H358 cells, the IC50 was not above 1 µM.
The matching figures for `CC1COC(=O)[C@@H]2CCCN(N2)C(=O)[C@@H](NC(=O)[C@H](C(C)C)N(C)C(=O)C2CN(C(=O)CCl)C2)Cc2cc(O)cc(c2)-c2ccc3c(c2)c(cn3CC2COC2)C1` (single isomer, unassigned) [Compound 228]: not above 5 µM and 1 to 10 µM.
In the case of `CC1COC(=O)[C@@H]2CCCN(N2)C(=O)[C@@H](NC(=O)[C@H](C(C)C)N(C)C(=O)C2CN(C(=O)CCl)C2)Cc2cc(O)cc(c2)-c2ccc3c(c2)c(cn3CC2COC2)C1` (single isomer, unassigned) [Compound 227], the Kd at cyclophilin A (CYPA) fell in the range of 5 to 15 µM. For the same compound, the IC50 with pERK in H358 cells is more than 10 µM.
Take `CC(C)[C@@H](C(=O)N[C@H]1Cc2cc(N)cc(c2)-c2ccc3c(C#N)cn(c3c2)CC(C)(C)COC(=O)[C@@H]2CCCN(N2)C1=O)N(C)C(=O)C1CN(C(=O)CCl)C1` [Compound 230, N-((2S)-1-(((6^3S,4S)-2^5-amino-1^3-cyano-10,10-dimethyl-5,7-dioxo-6^1,6^2,6^3,6^4,6^5,6^6-hexahydro-1^1H-8-oxa-1(6,1)-indola-6(1,3)-pyridazina-2(1,3)-benzenacycloundecaphane-4-yl)amino)-3-methyl-1-oxobutan-2-yl)-1-(2-chloroacetyl)-N-methylazetidine-3-carboxamide]: the EC50 in assay [1] was in the range of 0.5 to 5 µM. The IC50 in the assay on pERK in H358 cells is more than 10 µM.
For `CC(C)[C@@H](C(=O)N[C@H]1Cc2cc(O)cc(c2)-c2ccc3c(Cc4cccnc4)cn(c3c2)C[C@H](C)COC(=O)[C@@H]2CCCN(N2)C1=O)N(C)C(=O)C1CN(C(=O)CCl)C1` [Compound 70] the same measures were not above 0.5 µM and more than 10 µM.
The matching figures for `C=CC(=O)N1CCC(C(=O)N(C)C(C(=O)NC2Cc3cc(O)cc(c3)-c3ccc4c(c3)c(cn4C(C)(C)C#N)CC(C)(C)COC(=O)C3CCCN(N3)C2=O)C2CCCCC2)C1` (stereo not drawn) [Compound 396]: more than 5 µM and 1 to 10 µM.
With `C=CC(=O)N1CCN([C@H](C(=O)N[C@H]2Cc3cc(O)cc(c3)-c3ccc4c(C5CCOCC5)cn(c4c3)CCCOC(=O)[C@@H]3CCCN(N3)C2=O)C(C)C)C1=O` [Compound 229, (2S)-2-(3-acryloyl-2-oxoimidazolidin-1-yl)-N-((6^3S,4S)-2^5-hydroxy-5,7-dioxo-1^3-(tetrahydro-2H-pyran-4-yl)-6^1,6^2,6^3,6^4,6^5,6^6-hexahydro-1^1H-8-oxa-1(6,1)-indola-6(1,3)-pyridazina-2(1,3)-benzenacycloundecaphane-4-yl)-3-methylbutanamide], the Kd at cyclophilin A (CYPA) was not above 5 µM. Further, in the assay on pERK in H358 cells, the IC50 is more than 10 µM.
In the case of `C=CC(=O)N1CC(C(=O)N(C)[C@H](C(=O)N[C@H]2Cc3cc(O)cc(c3)-c3ccc4c(C5CCN(C)CC5)nn(c4c3)CC(C)(C)COC(=O)[C@@H]3CCCN(N3)C2=O)C(C)C)C1` [Compound 232, 1-acryloyl-N-((2S)-1-(((6^3S,4S)-2^5-hydroxy-10,10-dimethyl-1^3-(1-methylpiperidin-4-yl)-5,7-dioxo-6^1,6^2,6^3,6^4,6^5,6^6-hexahydro-1^1H-8-oxa-1(6,1)-indazola-6(1,3)-pyridazina-2(1,3)-benzenacycloundecaphane-4-yl)amino)-3-methyl-1-oxobutan-2-yl)-N-methylazetidine-3-carboxamide], in assay [1], the concentration for a half-maximal effect (EC50) is 0.5 to 5 µM. In addition, the IC50 in the assay with pERK in H358 cells is more than 10 µM.
In assay [1], `C#Cc1nn2c3cc(ccc13)-c1cc(O)cc(c1)C[C@H](NC(=O)[C@H](C(C)C)N(C)C(=O)C1CN(C(=O)CCl)C1)C(=O)N1CCC[C@H](N1)C(=O)OCC(C)(C)C2` [Compound 233, 1-(2-chloroacetyl)-N-((2S)-1-(((6^3S,4S)-1^3-ethynyl-2^5-hydroxy-10,10-dimethyl-5,7-dioxo-6^1,6^2,6^3,6^4,6^5,6^6-hexahydro-1^1H-8-oxa-1(6,1)-indazola-6(1,3)-pyridazina-2(1,3)-benzenacycloundecaphane-4-yl)amino)-3-methyl-1-oxobutan-2-yl)-N-methylazetidine-3-carboxamide] returned an EC50 not above 0.5 µM. For the same compound, the IC50 in the assay on pERK in H358 cells is more than 10 µM.
In assay [1], `CC1COC(=O)[C@@H]2CCCN(N2)C(=O)[C@@H](NC(=O)[C@H](C(C)C)N(C)C(=O)C2CN(C(=O)CCl)C2)Cc2cc(O)cc(c2)-c2ccc3c(C#N)cn(c3c2)C1` (single isomer, unassigned) [Compound 88] displayed an EC50 of 0.5 to 5 µM. Besides, on cyclophilin A (CYPA), the Kd is more than 15 µM.
`C=CC(=O)N1CCN([C@H](C(=O)N[C@H]2Cc3cc(O)cc(c3)-c3ccc4c(CC#N)cn(c4c3)CCCOC(=O)[C@@H]3CCCN(N3)C2=O)C(C)C)C1=O` [Compound 96] had an EC50 in assay [1] of 0.5 to 5 µM. Further, the Kd on cyclophilin A (CYPA) is not above 5 µM.
`CC(C)[C@@H](C(=O)N[C@H]1Cc2cc(O)cc(c2)-c2ccc3c(-c4cccnc4)cn(c3c2)C[C@H](C)COC(=O)[C@@H]2CCCN(N2)C1=O)N(C)C(=O)C1CN(C(=O)CCl)C1` [Compound 51]: the EC50 in assay [1] was not above 0.5 µM. For the same compound, the IC50 with pERK in H358 cells lay in the range of 1 to 10 µM.
